Experimental data: ChEMBL document CHEMBL3885861, “Open TG-GATES”

Species on record: Rattus norvegicus
Test: Open TG-GATES - Regimen: Daily Repeat
Type: toxicity, organism-based, Sprague-Dawley
Set-up: regimen Daily Repeat, gender Male, age 6 weeks
Conditions: in vivo, po, 2000 mg/kg, route gavage, dose level High; for Bas / Eos / Hb / Ht / Lym / MCH / MCHC / MCV / Mono / Neu / Plat / RBC / Ret / WBC: tissue Blood; for KIDNEY_L / KIDNEY_R / KIDNEY_TOTAL: tissue Kidney; for LIVER: tissue Liver; for A/G / ALP / ALT / AST / BUN / CRE / Ca / Cl / DBIL / GLC / IP / K / LDH / Na / PL / RALB / TBIL / TC / TG / TP / gamma-GTP: tissue Plasma

Work on `CC(N)=O` [ACETAMIDE] yielded a TERMINAL_BW (72 h, time 3 day) of 234.1 g, a Bas (72 h, time 3 day) of 0% and an Eos (72 h, time 3 day) of 0.4%. It also gave a Hb (72 h, time 3 day) of 13 g/dL, a Ht (72 h, time 3 day) of 40% and a Lym (72 h, time 3 day) of 78%. For the same compound, the MCH (72 h, time 3 day) was 20.1 pg, the MCHC (72 h, time 3 day) was 32.6% and the MCV (72 h, time 3 day) was 61.7 fL. The Mono (72 h, time 3 day) was 5.2%, the Neu (72 h, time 3 day) was 14.4% and the Plat (72 h, time 3 day) was 119.8 x10_4/uL. It also gave an RBC (72 h, time 3 day) of 647.8 x10_4/ul, a Ret (72 h, time 3 day) of 7.6% and a WBC (72 h, time 3 day) of 106.6 x10_2/uL. It also gave a KIDNEY_L (72 h, time 3 day) of 1.1 g, a KIDNEY_R (72 h, time 3 day) of 1.1 g and a KIDNEY_TOTAL (72 h, time 3 day) of 2.2 g. For the same compound, the LIVER (72 h, time 3 day) was 10.9 g, the A/G (72 h, time 3 day) was 1 and the ALP (72 h, time 3 day) was 1650 IU/L. It also gave an ALT (72 h, time 3 day) of 60.6 IU/L, an AST (72 h, time 3 day) of 95.2 IU/L and a BUN (72 h, time 3 day) of 18.4 mg/dL. It also gave a CRE (72 h, time 3 day) of 0.1 mg/dL, a Ca (72 h, time 3 day) of 10.9 mg/dL and a Cl (72 h, time 3 day) of 103.7 meq/L. For the same compound, the DBIL (72 h, time 3 day) was 0.006 mg/dL, the GLC (72 h, time 3 day) was 187.4 mg/dL and the IP (72 h, time 3 day) was 7.5 mg/dL. The K (72 h, time 3 day) was 4.2 meq/L, the LDH (72 h, time 3 day) was 200.2 IU/L and the Na (72 h, time 3 day) was 140.6 meq/L. For the same compound, the PL (72 h, time 3 day) was 160.4 mg/dL, the RALB (72 h, time 3 day) was 2.8 g/dL and the TBIL (72 h, time 3 day) was 0.014 mg/dL. It also gave a TC (72 h, time 3 day) of 79.2 mg/dL, a TG (72 h, time 3 day) of 94.6 mg/dL and a TP (72 h, time 3 day) of 5.5 g/dL. It also gave a gamma-GTP (72 h, time 3 day) of 1 IU/L, a TERMINAL_BW ([…], time 7 day) of 255.2 g and a TERMINAL_BW ([…], time 14 day) of 310 g. The TERMINAL_BW ([…], time 28 day) was 403 g, the Bas ([…], time 7 day) was 0% and the Eos ([…], time 7 day) was 1%. The Hb ([…], time 7 day) was 13.7 g/dL, the Ht ([…], time 7 day) was 41.1% and the Lym ([…], time 7 day) was 78.2%. It also gave an MCH ([…], time 7 day) of 19.5 pg, an MCHC ([…], time 7 day) of 33.4% and an MCV ([…], time 7 day) of 58.4 fL. For the same compound, the Mono ([…], time 7 day) was 4%, the Neu ([…], time 7 day) was 15.2% and the Plat ([…], time 7 day) was 89.2 x10_4/uL. It also gave an RBC ([…], time 7 day) of 704.6 x10_4/ul, a Ret ([…], time 7 day) of 4.4% and a WBC ([…], time 7 day) of 108.9 x10_2/uL. The Bas ([…], time 14 day) was 0%, the Eos ([…], time 14 day) was 0.4% and the Hb ([…], time 14 day) was 14 g/dL. For the same compound, the Ht ([…], time 14 day) was 41.6%, the Lym ([…], time 14 day) was 84.8% and the MCH ([…], time 14 day) was 19.6 pg. It also gave an MCHC ([…], time 14 day) of 33.6%, an MCV ([…], time 14 day) of 58.2 fL and a Mono ([…], time 14 day) of 2.4%. It also gave a Neu ([…], time 14 day) of 10.6%, a Plat ([…], time 14 day) of 101.3 x10_4/uL and an RBC ([…], time 14 day) of 713.8 x10_4/ul. For the same compound, the Ret ([…], time 14 day) was 4.1%, the WBC ([…], time 14 day) was 156.4 x10_2/uL and the Bas ([…], time 28 day) was 0%. The Eos ([…], time 28 day) was 0.8%, the Hb ([…], time 28 day) was 14.8 g/dL and the Ht ([…], time 28 day) was 44%. For the same compound, the Lym ([…], time 28 day) was 78.8%, the MCH ([…], time 28 day) was 19.4 pg and the MCHC ([…], time 28 day) was 33.8%. The MCV ([…], time 28 day) was 57.6 fL, the Mono ([…], time 28 day) was 3% and the Neu ([…], time 28 day) was 15.6%. The Plat ([…], time 28 day) was 88.6 x10_4/uL, the RBC ([…], time 28 day) was 763.8 x10_4/ul and the Ret ([…], time 28 day) was 2.6%. For the same compound, the WBC ([…], time 28 day) was 121.1 x10_2/uL, the KIDNEY_L ([…], time 7 day) was 1.1 g and the KIDNEY_R ([…], time 7 day) was 1.1 g. The KIDNEY_TOTAL ([…], time 7 day) was 2.3 g, the KIDNEY_L ([…], time 14 day) was 1.3 g and the KIDNEY_R ([…], time 14 day) was 1.3 g. The KIDNEY_TOTAL ([…], time 14 day) was 2.6 g, the KIDNEY_L ([…], time 28 day) was 1.5 g and the KIDNEY_R ([…], time 28 day) was 1.6 g. It also gave a KIDNEY_TOTAL ([…], time 28 day) of 3.1 g, an LIVER ([…], time 7 day) of 10.6 g and an LIVER ([…], time 14 day) of 11.7 g. The LIVER ([…], time 28 day) was 14.4 g, the A/G ([…], time 7 day) was 1 and the ALP ([…], time 7 day) was 2391.2 IU/L. The ALT ([…], time 7 day) was 74.6 IU/L, the AST ([…], time 7 day) was 114.4 IU/L and the BUN ([…], time 7 day) was 18.5 mg/dL. The CRE ([…], time 7 day) was 0.2 mg/dL, the Ca ([…], time 7 day) was 10.5 mg/dL and the Cl ([…], time 7 day) was 103.1 meq/L. The DBIL ([…], time 7 day) was 0.02 mg/dL, the GLC ([…], time 7 day) was 194.8 mg/dL and the IP ([…], time 7 day) was 5.9 mg/dL. The K ([…], time 7 day) was 4.2 meq/L, the LDH ([…], time 7 day) was 251.2 IU/L and the Na ([…], time 7 day) was 141.3 meq/L. For the same compound, the PL ([…], time 7 day) was 170.8 mg/dL, the RALB ([…], time 7 day) was 2.8 g/dL and the TBIL ([…], time 7 day) was 0.028 mg/dL. The TC ([…], time 7 day) was 89.8 mg/dL, the TG ([…], time 7 day) was 94 mg/dL and the TP ([…], time 7 day) was 5.6 g/dL. For the same compound, the gamma-GTP ([…], time 7 day) was 1.1 IU/L, the A/G ([…], time 14 day) was 0.9 and the ALP ([…], time 14 day) was 1866.6 IU/L. The ALT ([…], time 14 day) was 90.6 IU/L, the AST ([…], time 14 day) was 159.8 IU/L and the BUN ([…], time 14 day) was 17.1 mg/dL. It also gave a CRE ([…], time 14 day) of 0.2 mg/dL, a Ca ([…], time 14 day) of 10.1 mg/dL and a Cl ([…], time 14 day) of 103.9 meq/L. The DBIL ([…], time 14 day) was 0.054 mg/dL, the GLC ([…], time 14 day) was 187.8 mg/dL and the IP ([…], time 14 day) was 6 mg/dL. It also gave a K ([…], time 14 day) of 4.2 meq/L, an LDH ([…], time 14 day) of 232.2 IU/L and a Na ([…], time 14 day) of 141.6 meq/L. It also gave a PL ([…], time 14 day) of 156.2 mg/dL, an RALB ([…], time 14 day) of 2.7 g/dL and a TBIL ([…], time 14 day) of 0.07 mg/dL. For the same compound, the TC ([…], time 14 day) was 87.2 mg/dL, the TG ([…], time 14 day) was 77.7 mg/dL and the TP ([…], time 14 day) was 5.5 g/dL. The gamma-GTP ([…], time 14 day) was 1.6 IU/L, the A/G ([…], time 28 day) was 0.9 and the ALP ([…], time 28 day) was 1427.6 IU/L. For the same compound, the ALT ([…], time 28 day) was 55.6 IU/L, the AST ([…], time 28 day) was 87.4 IU/L and the BUN ([…], time 28 day) was 18 mg/dL. It also gave a CRE ([…], time 28 day) of 0.2 mg/dL, a Ca ([…], time 28 day) of 10.2 mg/dL and a Cl ([…], time 28 day) of 104.2 meq/L. For the same compound, the DBIL ([…], time 28 day) was 0.01 mg/dL, the GLC ([…], time 28 day) was 199 mg/dL and the IP ([…], time 28 day) was 5.3 mg/dL. It also gave a K ([…], time 28 day) of 4.1 meq/L, an LDH ([…], time 28 day) of 286.2 IU/L and a Na ([…], time 28 day) of 141.9 meq/L. It also gave a PL ([…], time 28 day) of 136.2 mg/dL, an RALB ([…], time 28 day) of 2.8 g/dL and a TBIL ([…], time 28 day) of 0.01 mg/dL. It also gave a TC ([…], time 28 day) of 65.8 mg/dL, a TG ([…], time 28 day) of 102.2 mg/dL and a TP ([…], time 28 day) of 6 g/dL. For the same compound, the gamma-GTP ([…], time 28 day) was 0.8 IU/L.
